Results: article PMC9862800, “Pharmaceutical Systems as a Strategy to Enhance the Stability of Oxytetracycline Hydrochloride Polymorphs in Solution” (Pharmaceutics, 2023)
Counter-ions that a name gives are not always drawn.

Legend:
[1] = Apparent binding constant by UV-vis spectroscopy, Scott's plot, ligand ASP; type: physicochemical; settings: aqueous solution; absorption at 355 nm; Scott's equation, 1:1 stoichiometry; OxyCl 0.068 mM, ligand 0.068 to 10 mM
Experimental: (§1) UV-vis data were used to calculate the association or binding constants (Ka) of OxyCl polymorphs with each ligand in an aqueous solution by different treatment analyses. The concentration of OxyCl was kept constant (0.068 mM), while the concentration of ligands increased from 0.068 to 10 mM.
(§2) Ka values were determined by applying the formula of Benesi–Hildebrandt, adjusted by Scott utilized for a complex of 1:1 stoichiometry:(1) [L]/ΔAobs=[L]/ΔAc+1/Ka×ΔAc where [L] is the molar concentration of the ligand, ∆Aobs is the variation in the absorbance observed for the OxyCl solid form for a given [L], ΔAc is the variation in the absorbance between the complex and the free solid form.
(§3) The association constant (Ka) for the formation of binary systems was estimated from changes in the intensity of the absorption at 355 nm with increasing ligand concentration using double reciprocal plots of Scott´s equation. […] However, deviations in straight lines were detected for the binary systems with NAC, which determined it was impossible to calculate an association constant assuming this model. To determine the Ka for OxyCl:NAC systems, a model matrix that applied least-squares techniques for the linear transformation of the data was used.

[2] = Apparent binding constant by UV-vis spectroscopy, Scott's plot, ligand HIS; type: physicochemical; settings: aqueous solution; absorption at 355 nm; Scott's equation, 1:1 stoichiometry; OxyCl 0.068 mM, ligand 0.068 to 10 mM
Experimental: as §1, §2, §3

[3] = Chemical stability (degradation kinetics) in PBS by HPLC; type: physicochemical; settings: 25.0 ± 0.1 °C; for k0, intrinsic rate constant of degradation of the free polymorph: PBS (pH 7.4), light protection, 30 µg/mL
Experimental: (§4) The kinetics of degradation of OxyCl polymorphs both in the presence and absence of ligands were investigated in the aqueous solutions and PBS.
(§5) Stock solutions of each solid form, as well as each ligand β-CD, ASP, and NAC, were prepared. These stock solutions were diluted to a final concentration of 30 µg/mL in water and PBS solutions to prepare the test solutions. The solutions containing ligands were prepared in the molar ratio of 1:1. These solutions were stored with light protection in order to diminish any photolytic effects in a water bath at a constant temperature of 25.0 ± 0.1 °C. Samples were withdrawn at appropriate time intervals and immediately analyzed by HPLC. The observed pseudo first-order rate constants (kobs) for the OxyCl polymorphs degradation were obtained from a linear regression analysis of the natural logarithm of the remaining solid forms plotted against time.
(§6) An HPLC-UV procedure under isocratic conditions was optimized. The results were expressed as the mean of the three determinations of samples prepared in duplicate. The HPLC system was an Agilent 1100 (Agilent Technologies, Waldbronn, Germany) equipped with a column Gemini C18 250 mm × 4.6 mm i.d. filled with 5 μm particles and a precolumn (guard cartridge SecurityGuard C18 4 mm × 3.0 mm i.d.) supplied by Phenomenex (Phenomenex Inc., Torrance, CA, USA). To avoid interference from degradation products, the UV detection was performed at a wavelength of 355 nm. The mobile phase was acetonitrile-water adjusted to a pH of 3 with phosphoric acid (20:80, v/v), and a flow rate of 1 mL/min was used. The column temperature was 25 °C and the injection volume was 50 µL.
(§7) Furthermore, linear regression analysis was used to estimate the intrinsic rate constant of degradation of the free OxyCl polymorphs (k0), the observed rate constant of OxyCl polymorphs in the presence of ligands (kobs), the half-life (t50), and the time of 10% degradation of the drug (t90).
The degradation plots were linear, indicating apparent first-order kinetics. […] It was observed that OxyCl-I degraded at a faster rate than OxyCl-II and OxyCl-III, with a degradation rate of OxyCl-II < OxyCl-III < OxyCl-I.

[4] = Chemical stability (degradation kinetics) in aqueous solution by HPLC; type: physicochemical; settings: 25.0 ± 0.1 °C; for k0, intrinsic rate constant of degradation of the free polymorph: light protection, 30 µg/mL
Experimental: as §4, §5, §6
It is important to mention that the results presented in these studies represent the first report about OxyCl polymorphs stability. The degradation curves of each OxyCl polymorph and its binary systems with β-CD, NAC, and ASP in an aqueous solution, under identical experimental conditions, were compared. […] The kinetic parameters, which are important in the pharmaceutical sector, were determined using a first-order reaction model that could be expressed by the following equation:ln Ct = […] − k t(8) where Ct and C0 were the concentrations of OxyCl at different reaction times and at the initial time, respectively, k was the degradation rate constant, and t was time. As a result, the slope of the fitted lines could be used to determine k.
as §7

[5] = Apparent binding constant by UV-vis spectroscopy, Scott's plot, ligand β-CD; type: physicochemical; settings: aqueous solution; absorption at 355 nm; Scott's equation, 1:1 stoichiometry; OxyCl 0.068 mM, ligand 0.068 to 10 mM
Experimental: as §1, §2, §3

[6] = Apparent binding constant by UV-vis spectroscopy, least-squares model matrix, ligand NAC; type: physicochemical; settings: aqueous solution; absorption at 355 nm; model matrix with least-squares linear transformation; OxyCl 0.068 mM, ligand 0.068 to 10 mM
Experimental: as §1
Another model for measuring binding constants in data analysis utilizes least-squares analysis. The general approach is to use the linear regression method with a model matrix to find the binding association constant and then apply least-squares procedures to a linear transformation. The normal equations can be written in matrix form as:(2) M×P=Q where (3) M=[n∑x∑x∑x^2] (4) P=[a/b] (5) Q=[∑y/∑xy] then:(6) Ka=a/b
as §3

[7] = design: method as in doi:10.1016/j.molliq.2017.12.006; settings: incorporated into β-CD cavity; hydrolytic degradation; cited from earlier work

Row | SMILES | Apparent binding constants Ka, ligand ASP [1] | Apparent binding constants Ka, ligand HIS [2] [M⁻¹] | k0, intrinsic rate constant of degradation of the free polymorph [3] [h⁻¹] | t90, time of 10% degradation of the drug ([3]; PBS) [h] | half-life at 30 µg/mL ([3]; PBS, pH 7.4, PBS, read-out: t50, half-life (converted)) [h] | t50, half-life [4] [h] | t90, time of 10% degradation of the drug [4] [h] | k0, intrinsic rate constant of degradation of the free polymorph [4] [h⁻¹] | Apparent binding constants Ka, ligand β-CD [5] | Apparent binding constants Ka, ligand NAC [6] [M⁻¹] | t50, half-life ([3]; PBS) [h] | half-life at 30 µg/mL ([4]; pH 4, aqueous solution, read-out: t50, half-life (converted)) [h] | increase of half-life in aqueous solutions by β-CD [7] [fold]
1 | CN(C)[C@@H]1C(O)=C(C(N)=O)C(=O)[C@@]2(O)C(O)=C3C(=O)c4c(O)cccc4[C@@](C)(O)[C@H]3[C@H](O)[C@@H]12 [OxyCl-I, Oxytetracycline hydrochloride] | 34,645 M^−1 | 224 | 0.009 | 12 | 81 | 68 | 10 | 0.0102 | 3761 M⁻¹ | 2042 |  |  | 
2 | CN(C)[C@@H]1C(O)=C(C(N)=O)C(=O)[C@@]2(O)C(O)=C3C(=O)c4c(O)cccc4[C@@](C)(O)[C@H]3[C@H](O)[C@@H]12 [OxyCl-II, Oxytetracycline hydrochloride] | 3063 M⁻¹ | 323 | 0.005 | 21 |  | 57 | 9 | 0.0121 | 15,425 M^−1 | 4582 | 139 |  | 
3 | CN(C)[C@@H]1C(O)=C(C(N)=O)C(=O)[C@@]2(O)C(O)=C3C(=O)c4c(O)cccc4[C@@](C)(O)[C@H]3[C@H](O)[C@@H]12 [OxyCl-III, Oxytetracycline hydrochloride] | 1771 M⁻¹ | 8247 | 0.007 | 15 |  |  | 9 | 0.0116 | 3607 M⁻¹ | 3897 | 102 | 60 | 
4 | NS(=O)(=O)c1cc2c(cc1Cl)NCNS2(=O)=O [hydrochlorothiazide] |  |  |  |  |  |  |  |  |  |  |  |  | ~28
